Literature values in patent publication US20090233914A1, “Composition for treatment of nail infections” (Ondine International, Ltd., priority 2008, published 2009).

Tested on: onychomycosis
Conditions: for side effects: human, in vivo, po

In the case of `CN(C/C=C/C#CC(C)(C)C)Cc1cccc2ccccc12` [Lamisil, terbinafine], the “nail clearing in patients for one year” value (oral, once a day for 90 days) is given as 70-80 % of patients.
For `COC1=CC(=O)C[C@@H](C)[C@]12Oc1c(Cl)c(OC)cc(OC)c1C2=O` [Griseofulvin], the side effects is given as “undesired side effects” and the “effectiveness of treatment of onychomycosis” value (oral medicine) is given as “largely ineffectual”.
In the case of `CCC(C)n1ncn(-c2ccc(N3CCN(c4ccc(OCC5COC(Cn6cncn6)(c6ccc(Cl)cc6Cl)O5)cc4)CC3)cc2)c1=O` (centres unmarked) [itraconazole], the side effects is listed as “somewhat severe”.
In the case of `OC(Cn1cncn1)(Cn1cncn1)c1ccc(F)cc1F` [Fluconazole], the side effects is given as “severe side effects”.
